Source: US20190134005A1 (BioMarin Pharmaceutical Inc., priority 2016, published 2019)

The compounds below were run against T1, human CGT (Homo sapiens, UniProt Q16880) (assay: Assay 1: CGT Enzymatic Assay (RapidFire/MS/MS, 0.01% Tween 80)). Conditions: Table 1, Compounds of Formula (I) and Formula (II); CGT enzymatic assay, C6-NBD-dihydro-galactosylceramide readout; read-out: IC50.
T1 sequence (Q16880 21-541): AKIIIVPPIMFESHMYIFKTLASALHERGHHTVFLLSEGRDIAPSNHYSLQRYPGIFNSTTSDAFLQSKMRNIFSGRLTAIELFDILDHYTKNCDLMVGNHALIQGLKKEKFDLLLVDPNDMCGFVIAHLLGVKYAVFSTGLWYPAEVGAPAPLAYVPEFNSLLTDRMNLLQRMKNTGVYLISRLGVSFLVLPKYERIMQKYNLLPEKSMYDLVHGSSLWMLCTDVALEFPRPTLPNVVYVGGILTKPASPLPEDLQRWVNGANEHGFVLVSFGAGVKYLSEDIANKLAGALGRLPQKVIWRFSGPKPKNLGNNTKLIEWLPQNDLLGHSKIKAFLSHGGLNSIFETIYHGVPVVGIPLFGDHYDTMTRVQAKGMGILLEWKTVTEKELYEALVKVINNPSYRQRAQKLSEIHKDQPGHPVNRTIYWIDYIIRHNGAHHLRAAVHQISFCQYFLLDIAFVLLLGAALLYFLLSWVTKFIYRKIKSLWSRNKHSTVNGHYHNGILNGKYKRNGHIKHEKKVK
Format: biochemical
In the case of COC[C@@]1(C)N(c2ccc(Cl)cc2)C(=O)N(c2ccc(Cl)cc2)C1(O)c1cccc(C#N)c1 (single isomer, unassigned) [Compound 297-1], the IC50 is reported as less than 1000 nM. Work on COC[C@]1(C)N(c2ccc(Cl)cc2)C(=O)N(c2ccc(Cl)cc2)C1(O)c1cccc(C#N)c1 (single isomer, unassigned) [Compound 297-2] yielded an IC50 of less than 1000 nM.

Same assay, conditions: Table 1, Compounds of Formula (I) and Formula (II); CGT enzymatic assay; read-out: IC50
O=C1N(c2ccc(Cl)cc2)[C@@H]([C@@H]2CCCO2)C(O)(c2cccc(Cl)c2)N1c1ccc(Cl)cc1 (single isomer, unassigned) [Compound 117-1] was tested, and the IC50 was 1000 to 10000 nM. For O=C1N(c2ccc(Cl)cc2)[C@H]([C@H]2CCCO2)C(O)(c2cccc(Cl)c2)N1c1ccc(Cl)cc1 (single isomer, unassigned) [Compound 117-2], the IC50 was 1000 to 10000 nM. For COc1cccc([C@@]2(C)C(O)N(c3ccc(Br)cc3)C(=O)N2c2ccc(Br)cc2)c1 (single isomer, unassigned) [Compound 126-1], the IC50 was greater than 50000 nM. Compound COc1cccc([C@]2(C)C(O)N(c3ccc(Br)cc3)C(=O)N2c2ccc(Br)cc2)c1 (single isomer, unassigned) [Compound 126-2] has an IC50 of less than 1000 nM. N#Cc1cccc(C2(O)[C@H](CC3CC3)N(c3ccc(Cl)cc3)C(=O)N2c2ccc(Cl)cc2)c1 (single isomer, unassigned) [Compound 132-1] gave an IC50 of 1000 to 10000 nM. In the case of N#Cc1cccc(C2(O)[C@@H](CC3CC3)N(c3ccc(Cl)cc3)C(=O)N2c2ccc(Cl)cc2)c1 (single isomer, unassigned) [Compound 132-2], the IC50 is reported as less than 1000 nM. In the case of CC(=O)c1cccc(C2(O)[C@H](C)N(c3ccc(Cl)cc3)C(=O)N2c2ccc(Cl)cc2)c1 (single isomer, unassigned) [Compound 136-1], the IC50 is reported as 1000 to 10000 nM. With CC[C@@H]1N(c2ccc(F)cc2)C(=O)N(c2ccc(F)cc2)C1(O)c1cccc(C(F)(F)F)c1 (single isomer, unassigned) [Compound 139-1] the IC50 was 1000 to 10000 nM. With CC[C@H]1N(c2ccc(F)cc2)C(=O)N(c2ccc(F)cc2)C1(O)c1cccc(C(F)(F)F)c1 (single isomer, unassigned) [Compound 139-2] the IC50 was less than 1000 nM. C[C@]1(c2cccc(Cl)c2)C(O)N(c2ccc(Cl)cc2)C(=O)N1c1ccc(Cl)cc1 (single isomer, unassigned) [Compound 149-1] gave an IC50 of 1000 to 10000 nM. C[C@@]1(c2cccc(Cl)c2)C(O)N(c2ccc(Cl)cc2)C(=O)N1c1ccc(Cl)cc1 (single isomer, unassigned) [Compound 149-2] showed an IC50 of less than 1000 nM. Cc1ccc(N2C(=O)N(c3ccc(C)cc3)C(O)(c3cccc(OC(F)(F)F)c3)[C@@H]2C(C)C)cc1 (single isomer, unassigned) [Compound 235-1] showed an IC50 of less than 1000 nM. Work on Cc1ccc(N2C(=O)N(c3ccc(C)cc3)C(O)(c3cccc(OC(F)(F)F)c3)[C@H]2C(C)C)cc1 (single isomer, unassigned) [Compound 235-2] yielded an IC50 of less than 1000 nM. Compound C[C@]1(C(F)(F)F)N(c2ccc(Cl)cc2)C(=O)N(c2ccc(Cl)cc2)C1(O)c1cccc(OC(F)(F)F)c1 (single isomer, unassigned) [Example 159-1] has an IC50 of 1000 to 10000 nM. Compound C[C@@]1(C(F)(F)F)N(c2ccc(Cl)cc2)C(=O)N(c2ccc(Cl)cc2)C1(O)c1cccc(OC(F)(F)F)c1 (single isomer, unassigned) [Example 159-2] has an IC50 of less than 1000 nM. Work on CC[C@@]1(C)N(c2ccc(Cl)cc2)C(=O)N(c2ccc(Cl)cc2)C1(O)c1cccc(OC(F)(F)F)c1 (single isomer, unassigned) [Example 163-1] yielded an IC50 of 1000 to 10000 nM. Work on CC[C@]1(C)N(c2ccc(Cl)cc2)C(=O)N(c2ccc(Cl)cc2)C1(O)c1cccc(OC(F)(F)F)c1 (single isomer, unassigned) [Example 163-2] yielded an IC50 of less than 1000 nM. Work on CN(C)C[C@@H]1N(c2ccc(Cl)cc2)C(=O)N(c2ccc(Cl)cc2)C1(O)c1cccc(OC(F)(F)F)c1 (single isomer, unassigned) [Example 166-1] yielded an IC50 of less than 1000 nM. For CN(C)C[C@H]1N(c2ccc(Cl)cc2)C(=O)N(c2ccc(Cl)cc2)C1(O)c1cccc(OC(F)(F)F)c1 (single isomer, unassigned) [Example 166-2], the IC50 was less than 1000 nM. In the case of CCC[C@@]1(C)N(c2ccc(Cl)cc2)C(=O)N(c2ccc(Cl)cc2)C1(O)c1cccc(OC(F)(F)F)c1 (single isomer, unassigned) [Example 170-1], the IC50 is reported as 10000 to 50000 nM. CCC[C@]1(C)N(c2ccc(Cl)cc2)C(=O)N(c2ccc(Cl)cc2)C1(O)c1cccc(OC(F)(F)F)c1 (single isomer, unassigned) [Example 170-2] was tested, and the IC50 was less than 1000 nM. Work on C[C@]1(C(F)(F)F)N(c2ccc(Cl)cc2)C(=O)N(c2ccc(Cl)cc2)C1(O)c1cccc(C#N)c1 (single isomer, unassigned) [Example 177-1] yielded an IC50 of less than 1000 nM. In the case of C[C@@]1(C(F)(F)F)N(c2ccc(Cl)cc2)C(=O)N(c2ccc(Cl)cc2)C1(O)c1cccc(C#N)c1 (single isomer, unassigned) [Example 177-2], the IC50 is reported as 1000 to 10000 nM. With CC[C@@]1(C)N(c2ccc(Cl)cc2)C(=O)N(c2ccc(Cl)cc2)C1(O)c1cccc(C#N)c1 (single isomer, unassigned) [Example 185-1] the IC50 was 10000 to 50000 nM. Compound CC[C@]1(C)N(c2ccc(Cl)cc2)C(=O)N(c2ccc(Cl)cc2)C1(O)c1cccc(C#N)c1 (single isomer, unassigned) [Example 185-2] has an IC50 of less than 1000 nM. CC(C)[C@H]1N(c2ccc(C(F)(F)F)cc2)C(=O)N(c2ccc(C(F)(F)F)cc2)C1(O)c1cccc(OC(F)(F)F)c1 (single isomer, unassigned) [Example 196-2] gave an IC50 of less than 1000 nM. Cc1cccc([C@@]2(C)C(O)N(c3ccc(Cl)cc3)C(=O)N2c2ccc(Cl)cc2)c1 (single isomer, unassigned) [Example 222-1] showed an IC50 of 10000 to 50000 nM. Work on Cc1cccc([C@]2(C)C(O)N(c3ccc(Cl)cc3)C(=O)N2c2ccc(Cl)cc2)c1 (single isomer, unassigned) [Example 222-2] yielded an IC50 of less than 1000 nM. For C[C@]1(c2ccccc2)C(O)N(c2ccc(Cl)cc2)C(=O)N1c1ccc(Cl)cc1 (single isomer, unassigned) [Example 223-1], the IC50 was 10000 to 50000 nM. Work on C[C@@]1(c2ccccc2)C(O)N(c2ccc(Cl)cc2)C(=O)N1c1ccc(Cl)cc1 (single isomer, unassigned) [Example 223-2] yielded an IC50 of less than 1000 nM. CCC1N(c2ccc(Cl)cc2)C(=O)N(c2ccc(Cl)cc2)C1(O)c1cccc(OC(F)(F)F)c1 (stereo in doubt) [Compound 82-1, (5S)-1,3-bis(4-chlorophenyl)-5-ethyl-4-hydroxy-4-(3-(trifluoromethoxy)phenyl)imidazolidin-2-one] showed an IC50 of less than 1000 nM. CCC1N(c2ccc(Cl)cc2)C(=O)N(c2ccc(Cl)cc2)C1(O)c1cccc(OC(F)(F)F)c1 (stereo in doubt) [Compound 82-2, (5R)-1,3-bis(4-chlorophenyl)-5-ethyl-4-hydroxy-4-(3-(trifluoromethoxy)phenyl)imidazolidin-2-one] showed an IC50 of less than 1000 nM. CCC1N(c2ccc(Br)cc2)C(=O)N(c2ccc(Br)cc2)C1(O)c1cccc(OC(F)(F)F)c1 (stereo in doubt) [Compound 83-1, (5S)-1,3-bis(4-bromophenyl)-5-ethyl-4-hydroxy-4-(3-(trifluoromethoxy)phenyl)imidazolidin-2-one] gave an IC50 of less than 1000 nM. Work on CCC1N(c2ccc(Br)cc2)C(=O)N(c2ccc(Br)cc2)C1(O)c1cccc(OC(F)(F)F)c1 (stereo in doubt) [Compound 83-2, (5R)-1,3-bis(4-bromophenyl)-5-ethyl-4-hydroxy-4-(3-(trifluoromethoxy)phenyl)imidazolidin-2-one] yielded an IC50 of less than 1000 nM. With CCCC1N(c2ccc(Br)cc2)C(=O)N(c2ccc(Br)cc2)C1(O)c1ccccc1 (centres unmarked) [Compound 51] the IC50 was less than 1000 nM. O=C1N(c2ccc(Br)cc2)CC(O)(c2cccnc2)N1c1ccc(Br)cc1 (centres unmarked) [Compound 52, 1,3-bis(4-bromophenyl)-4-hydroxy-4-(pyridin-3-yl)imidazolidin-2-one] was tested, and the IC50 was 10000 to 50000 nM. O=C1N(c2ccc(Br)cc2)CC(O)(c2cccc(OC(F)(F)F)c2)N1c1ccc(Br)cc1 (centres unmarked) [Compound 58, 1,3-bis(4-bromophenyl)-4-hydroxy-4-(3-(trifluoromethoxy)phenyl)imidazolidin-2-one] was tested, and the IC50 was less than 1000 nM. CC(C)c1cccc(C2(O)CN(c3ccc(Br)cc3)C(=O)N2c2ccc(Br)cc2)c1 (centres unmarked) [Compound 59, 1,3-bis(4-bromophenyl)-4-hydroxy-4-(3-isopropylphenyl)imidazolidin-2-one] was tested, and the IC50 was 1000 to 10000 nM. C#Cc1cccc(C2(O)CN(c3ccc(Cl)cc3)C(=O)N2c2ccc(Cl)cc2)c1 (centres unmarked) [Compound 60, 1,3-bis(4-chlorophenyl)-4-(3-ethynylphenyl)-4-hydroxyimidazolidin-2-one] gave an IC50 of less than 1000 nM. Work on N#Cc1ccc(C2(O)CN(c3ccc(Br)cc3)C(=O)N2c2ccc(Br)cc2)cc1 (centres unmarked) [Compound 61, 4-(1,3-bis(4-bromophenyl)-4-hydroxy-2-oxoimidazolidin-4-yl)benzonitrile] yielded an IC50 greater than 50000 nM. For CC1N(c2ccc(Cl)cc2)C(=O)N(c2ccc(Cl)cc2)C1(O)c1cccc(Cl)c1 (centres unmarked) [Compound 62, 4-(3-chlorophenyl)-1,3-bis(4-chlorophenyl)-4-hydroxy-5-methylimidazolidin-2-one], the IC50 was less than 1000 nM. With N#Cc1cccc(C2(O)CN(c3ccc(Cl)cc3)C(=O)N2c2ccc(Cl)cc2)c1 (centres unmarked) [Compound 63, 3-(1,3-bis(4-chlorophenyl)-4-hydroxy-2-oxoimidazolidin-4-yl)benzonitrile] the IC50 was less than 1000 nM.
